According to PMC8400311, “Novel Anti-Melanogenic Compounds, (Z)-5-(Substituted Benzylidene)-4-thioxothiazolidin-2-one Derivatives: In Vitro and In Silico Insights” (Molecules, 2021):
Where “and” joins values, the source holds several entries; their conditions need not be identical. Identical values can stand only once.

How the values were obtained:
mushroom tyrosinase [1] = assay: Mushroom tyrosinase inhibition assay; format: biochemical; conditions: for IC50: L-tyrosine as substrate, mean of 3 experiments, read-out: IC50 against mushroom tyrosinase; for fold lower tyrosinase inhibitory activity than 2b: ratio of IC50 values vs 2b
Experimental: The absorbances of dopachrome produced in each well during incubation was measured at 450 nm using a microplate reader (VersaMax™, Molecular Devices, Sunnyvale, CA, USA). […] All experiments were independently conducted 3 times. To calculate the % inhibition of tyrosinase activity, the following formula was used: % inhibition = […], where A means the optical density of the test samples and B means the optical density of the non-treated control. To calculate the concentration necessary for 50% inhibition of enzyme activity (IC50), the % tyrosinase inhibition of each compound was obtained at 3 or more different concentrations. IC50 values were calculated by constructing a linear regression curve showing the concentration of the (Z)-BTTZ compounds on the x-axis and percentage inhibition on the y-axis. To obtain a negative control dimethyl sulfoxide (DMSO) was added instead of the (Z)-BTTZ compounds.

B16F10 melanoma cells [2] = assay: Melanin content assay in α-MSH-stimulated cells; format: cell-based, murine; conditions: for reduction in melanin content: 48 h
Experimental: Melanin content assays were used to evaluate the inhibitory effects of compounds 2b and 2f on α-MSH-stimulated melanogenesis. […] The inhibitory activities on α-MSH-stimulated melanogenesis were determined by measuring melanin optical densities. The anti-melanogenesis activities of compounds 2b and 2f were assessed using a standard melanin content assay with minor modifications. Briefly, B16F10 cells were seeded at a density of 5 × 10^4/well in a 24-well plate and allowed to adhere to wells in a DMEM solution containing penicillin/streptomycin (100 IU/100 µg/mL) and 10% heat-inactivated FBS in a standard humidified 5% CO2 atmosphere at 37 °C. […] Cells were then rinsed twice with PBS and lysed in 200 µL of 1N NaOH containing 10% dimethyl sulfoxide (DMSO) for 1 h at 60 °C. Lysates were transferred to the wells of a 96-well plate, and melanin absorbances were measured at 405 nm using a microplate reader (VersaMax^TM, Molecular Devices, Sunnyvale, CA, USA). All experiments were conducted three times in triplicate. […] Bars represent standard errors.

B16F10 melanoma cells [3] = assay: Cell viability, EZ-Cytox assay; format: cell-based, murine; conditions: concentrations ≤25 µM; 24 and 48 h for 2b and 2f, respectively
Experimental: Before examining the inhibitory effects of compounds 2b and 2f on tyrosinase and melanin biosynthesis, we investigated their cytotoxic effects using murine B16F10 melanoma cells. The cells were treated with different concentrations of 2b or 2f (0, 1, 2.5, 5, 10, or 25 µM) for 24 and 48 h (Figure 7), respectively, and the cell viabilities were assessed using the EZ-Cytox assay.
Cell viability assays of compounds 2b and 2f were performed using B16F10 melanoma cells and the EZ-Cytox assay (EZ-3000, DoGenBio, Seoul, Korea), as previously described. Briefly, cells were seeded at a density of 1 × 10^4 cells/well in a 96-well plate for 24 h, and then were exposed to different concentrations (0, 1, 2.5, 5, 10, or 25 µM) of 2b or 2f and incubated at 37 °C for 24 and 48 h, respectively. EZ-Cytox solution (10 µL) was then added to each well and cells were incubated at 37 °C for 2 h. Absorbances were measured at 450 nm using a microplate reader (VersaMax^TM, Molecular Devices, Sunnyvale, CA, USA). Each assay was performed in triplicate.
Figure 7 The cytotoxic effects of compounds 2b (a) and 2f (b) on B16F10 melanoma cells at concentrations of 1, 2.5, 5, 10, or 25 µM. Cell viabilities were determined using the EZ-Cytox assay and are expressed as percentages versus non-treated controls. Bars present standard errors.

mushroom tyrosinase [4] = assay: Kinetic study of mushroom tyrosinase inhibition (Lineweaver–Burk plots); format: biochemical; conditions: L-tyrosine 0.5–8.0 mM
Experimental: To investigate the modes of action of compounds 2b and 2f, a kinetic study was performed using mushroom tyrosinase and different concentrations of L-tyrosine as a substrate in the presence of 2b or 2f. As depicted in Figure 4, inhibitory mechanisms were determined using Lineweaver–Burk plot analysis. The Lineweaver–Burk plot patterns of 2b and 2f were similar. The plots obtained at different concentrations of 2b and 2f merged at single points on the y-axis. Regardless of the concentration, the Vmax values of 2b and 2f were independent of concentration, whereas their KM values increased concentration-dependently.
Compounds 2b or 2f (10 µL, final concentrations: 0, 0.05, 0.1, or 0.2 µM for 2b and 0, 2, 4, or 8 µM for 2f) and mushroom tyrosinase solution (20 µL, 150 units) were added to the wells of a 96-well plate containing aqueous solutions (170 µL) containing L-tyrosine at 0.5, 1.0, 2.0, 4.0, or 8.0 mM (final concentrations), distilled water, and potassium phosphate buffer (final concentration: 14.7 mM, pH 6.5), in the ratio 10:9:10. Initial rates of dopachrome formation in reaction mixtures were calculated by measuring increases in absorbances at 492 nm (ΔOD492/min) using a microplate reader (VersaMax^TM, Molecular Devices, Sunnyvale, CA, USA). […] Modes of tyrosinase inhibition were determined using points of convergence. […]

[5] = test system: cellular tyrosinase in B16F10 melanoma cells; assay: Cellular tyrosinase activity assay (L-DOPA oxidation) in α-MSH-stimulated cells; format: cell-based, murine; conditions: for reduction in cellular tyrosinase activity: 48 h
Experimental: The inhibitory activities of compounds 2b and 2f against cellular tyrosinase were assessed using α-MSH-stimulated melanoma cells. […] The inhibitory effects on tyrosinase activity were evaluated by measuring optical densities.
Tyrosinase activities were assessed by determining the L-DOPA oxidation rate, as described previously with minor modifications. […] Cells were then rinsed twice with PBS, exposed to 100 µL of lysis buffer (90 µL of 50 mM phosphate buffer pH 6.8; 5 µL of 2 mM PMSF; 5 µL of 20% Triton), and frozen at −80 °C for 30 min. After defrosting, lysates were centrifuged at 12,000 g for 30 min at 4 °C, and supernatants (80 µL) were mixed with 10 mM L-DOPA (20 µL) in a 96-well plate. Absorbances were measured at 490 nm at 37 °C every 10 min for 1 h using a microplate reader (VersaMax^TM, Molecular Devices, Sunnyvale, CA, USA). All experiments were carried out three times in triplicate.
Bars represent standard errors.

[6] = 25 µM compound, α-MSH 0.5 µM, 48 h (α-MSH alone 1.61-fold)

## COc1ccc(/C=C2\SC(=O)NC2=S)cc1O [Compound 2f, (Z)-5-(3-Hydroxy-4-methoxybenzylidene)-4-thioxothiazolidin-2-one]
Mushroom tyrosinase [1]
  IC50: 15.2 ± 1.68 µM
B16F10 melanoma cells [2]; 5 µM compound, α-MSH 1.0 µM
  reduction in melanin content: 14%
B16F10 melanoma cells [2]; 5 µM compound, α-MSH 1.0 µM, 48 h (α-MSH alone 3.51-fold)
  melanin level versus non-treated controls: 3.03 fold
B16F10 melanoma cells [2]; 10 µM compound, α-MSH 1.0 µM
  reduction in melanin content: 46%
B16F10 melanoma cells [2]; 10 µM compound, α-MSH 1.0 µM, 48 h (α-MSH alone 3.51-fold)
  melanin level versus non-treated controls: 1.88 fold
B16F10 melanoma cells [2]; 25 µM compound, α-MSH 1.0 µM
  reduction in melanin content: 60%
B16F10 melanoma cells [2]; 25 µM compound, α-MSH 1.0 µM, 48 h (α-MSH alone 3.51-fold)
  melanin level versus non-treated controls: 1.42 fold
B16F10 melanoma cells [3]
  cytotoxic effect on B16F10 cells: Neither 2b nor 2f exhibited any significant cytotoxic effect
Mushroom tyrosinase [4]
  mode of mushroom tyrosinase inhibition: competitive
[5]; 5 µM compound, α-MSH 1.0 µM
  reduction in cellular tyrosinase activity: 23%
[5]; 5 µM compound, α-MSH 1.0 µM, 48 h (α-MSH alone 2.84-fold)
  cellular tyrosinase activity versus non-treated cells: 2.20 fold
[5]; 10 µM compound, α-MSH 1.0 µM
  reduction in cellular tyrosinase activity: 46%
[5]; 10 µM compound, α-MSH 1.0 µM, 48 h (α-MSH alone 2.84-fold)
  cellular tyrosinase activity versus non-treated cells: 1.54 fold
[5]; 25 µM compound, α-MSH 1.0 µM
  reduction in cellular tyrosinase activity: 59%
[5]; 25 µM compound, α-MSH 1.0 µM, 48 h (α-MSH alone 2.84-fold)
  cellular tyrosinase activity versus non-treated cells: 1.18 fold

## COc1cc(/C=C2\SC(=O)NC2=S)ccc1O [Compound 2d, (Z)-5-(4-Hydroxy-3-methoxybenzylidene)-4-thioxothiazolidin-2-one]
Mushroom tyrosinase [1]
  IC50: 70.8 ± 1 µM
Mushroom tyrosinase [1]; ratio of IC50 values vs 2f
  fold lower mushroom tyrosinase inhibitory activity than compound 2f: 4.6 fold

## O=C1NC(=S)/C(=C/c2ccc(O)cc2)S1 [Compound 2a, (Z)-5-(4-Hydroxybenzylidene)-4-thioxothiazolidin-2-one]
Mushroom tyrosinase [1]
  IC50: 28.1 ± 1.16 µM
  fold lower tyrosinase inhibitory activity than 2b: 60 fold

## O=c1cc(CO)occ1O [Kojic acid, reference compound]
B16F10 melanoma cells [2]; 25 µM compound, α-MSH 0.5 µM
  reduction in melanin content: 14%
B16F10 melanoma cells [2]; [6]
  melanin level versus non-treated controls: 1.38 fold
B16F10 melanoma cells [2]; 25 µM compound, α-MSH 1.0 µM
  reduction in melanin content: 45%
[5]; 25 µM compound, α-MSH 0.5 µM
  reduction in cellular tyrosinase activity: 14%
[5]; 25 µM compound, α-MSH 1.0 µM
  reduction in cellular tyrosinase activity: 33%

## CCOc1cc(/C=C2\SC(=O)NC2=S)ccc1O [Compound 2e, (Z)-5-(3-Ethoxy-4-hydroxybenzylidene)-4-thioxothiazolidin-2-one]
Mushroom tyrosinase [1]
  IC50: 92.81 ± 0.89 µM

## O=C1NC(=S)/C(=C/c2ccc(O)cc2O)S1 [Compound 2b, (Z)-5-(2,4-Dihydroxybenzylidene)-4-thioxothiazolidin-2-one]
Mushroom tyrosinase [1]; ratio of IC50 values vs kojic acid
  fold higher inhibitory potency than kojic acid (mushroom tyrosinase): 141 fold and > 100 fold
B16F10 melanoma cells [2]; 5 µM compound, α-MSH 0.5 µM
  reduction in melanin content: 26%
B16F10 melanoma cells [2]; 5 µM compound, α-MSH 0.5 µM, 48 h (α-MSH alone 1.61-fold)
  melanin level versus non-treated controls: 1.19 fold
B16F10 melanoma cells [2]; 10 µM compound, α-MSH 0.5 µM
  reduction in melanin content: 44%
B16F10 melanoma cells [2]; 10 µM compound, α-MSH 0.5 µM, 48 h (α-MSH alone 1.61-fold)
  melanin level versus non-treated controls: 0.91 fold
B16F10 melanoma cells [2]; 25 µM compound, α-MSH 0.5 µM
  reduction in melanin content: 47%
B16F10 melanoma cells [2]; [6]
  melanin level versus non-treated controls: 0.85 fold
B16F10 melanoma cells [3]
  cytotoxic effect on B16F10 cells: Neither 2b nor 2f exhibited any significant cytotoxic effect
Mushroom tyrosinase [4]
  mode of mushroom tyrosinase inhibition: competitive
[5]; 5 µM compound, α-MSH 0.5 µM
  reduction in cellular tyrosinase activity: 16%
[5]; 5 µM compound, α-MSH 0.5 µM, 48 h (α-MSH alone 2.19-fold)
  cellular tyrosinase activity versus non-treated cells: 1.85 fold
[5]; 10 µM compound, α-MSH 0.5 µM
  reduction in cellular tyrosinase activity: 32%
[5]; 10 µM compound, α-MSH 0.5 µM, 48 h (α-MSH alone 2.19-fold)
  cellular tyrosinase activity versus non-treated cells: 1.48 fold
[5]; 25 µM compound, α-MSH 0.5 µM
  reduction in cellular tyrosinase activity: 45%
[5]; 25 µM compound, α-MSH 0.5 µM, 48 h (α-MSH alone 2.19-fold)
  cellular tyrosinase activity versus non-treated cells: 1.20 fold

## COc1cc(/C=C2\SC(=O)NC2=S)cc(OC)c1O [Compound 2g, (Z)-5-(4-Hydroxy-3,5-dimethoxybenzylidene)-4-thioxothiazolidin-2-one]
Mushroom tyrosinase [1]
  IC50: 82.4 ± 1.26 µM

## COc1ccc(/C=C2\SC(=O)NC2=S)c(OC)c1 [Compound 2k, (Z)-5-(2,4-Dimethoxybenzylidene)-4-thioxothiazolidin-2-one]
Mushroom tyrosinase [1]
  IC50: 126.4 ± 0.46 µM

## O=C1NC(=S)/C(=C/c2ccccc2O)S1 [Compound 2h, (Z)-5-(2-Hydroxybenzylidene)-4-thioxothiazolidin-2-one]
Mushroom tyrosinase [1]
  IC50: 147.6 ± 0.96 µM
  fold lower tyrosinase inhibitory activity than 2b: 314 fold

## O=C1NC(=S)/C(=C/c2ccc(O)c(O)c2)S1 [Compound 2c, (Z)-5-(3,4-Dihydroxybenzylidene)-4-thioxothiazolidin-2-one]
Mushroom tyrosinase [1]
  IC50: 47.4 ± 2.18 µM

## COc1ccc(/C=C2\SC(=O)NC2=S)cc1 [Compound 2j, (Z)-5-(4-Methoxybenzylidene)-4-thioxothiazolidin-2-one]
Mushroom tyrosinase [1]
  IC50: 30.8 ± 1.41 µM

## O=C1NC(=S)/C(=C/c2ccc(O)c(Br)c2)S1 [Compound 2i, (Z)-5-(3-Bromo-4-hydroxybenzylidene)-4-thioxothiazolidin-2-one]
Mushroom tyrosinase [1]
  IC50: 26.3 ± 4.1 µM

## COc1ccc(/C=C2\SC(=O)NC2=S)cc1OC [Compound 2l, (Z)-5-(3,4-Dimethoxybenzylidene)-4-thioxothiazolidin-2-one]
Mushroom tyrosinase [1]
  IC50: 23.3 ± 0.28 µM
